Laboratory results: patent US8642784B2, “Biologically active compound N-[3-(4-nitrophenylamino)-indole-2-ilmethylene]aminoguanidine hydrochloride with anti-inflammatory activity” (priority 2010, dated 2014)
Where a name gives a salt, the structure may show the parent alone. Read-outs that look alike come from different tables or passages of the source. Marks after values point to notes of the source that are not given here.

How the values were obtained:
mice stomach [1] = assay: Irritant action on mice stomach, single administration of 500 mg/kg; type: in vivo
Protocol: Ulcerogenic effect of compound 2 was studied in accordance with Methodical recommendations on experimental (preclinical) research of new nonsteroidal anti-inflammatory drugs. Studies were performed according to the following scheme: • 1. Study of the compounds' irritant action on mice stomach using doses five-times higher than pharmacological dose (single administration). • 2. Study of the compounds' ulcerogenic action using pharmaceutical dose during 7 days of administration. • 3. Aggravation of ulcerogenic effects of studied compounds by 0.6H hydrochloric acid. • 4. Aggravation of ulcerogenic effects of studied compounds by the known NSAIDs (indomethacin). 1. Study of Irritant Action of Compound 2
Male mice with body mass 23-24 g were deprived of food for 24 hours, water access was not limited. Number of animals in a group-10.
Compound 2 in 500 mg/kg dose was administered by a tube into the stomach, after 6 hours the animals were sacrificed, their stomachs extracted, number of ulcers counted and ulcerogenic index calculated. Ulcerogenic effect was assessed using 4-point scale: 0—no damage; 0.5—hyperemia; 1—insignificant damage (1 or 2 small bleedings); 2—multiple damage (erosions, small bleedings); 3—significant and multiple damage (erosions, bleedings); 4—severe damage, affecting all gastric mucosa (massive bleedings, erosions, perforations).

[2] = system: LPS-induced peritonitis in rats; assay: LPS-induced peritonitis in rats, volume of exudate; type: in vivo; conditions: for Anti-inflammatory activity in LPS-induced peritonitis model, % of control: rats
Protocol: (§1) Anti-exudative action was studied in male rate with body mass 170.0-180.0 g. Peritonitis was induced by intraperitoneal administration of lipopolysaccharide (LPS), produced from Escherichia coli (Sigma)—1.0 mg/kg as described in [6]: after 4 hours the animals were sacrificed by CO2, their peritoneal cavity opened and the volume of exudate was measured in ml. Studied compounds and drugs of comparison were administered per os one hour before LPS, control group was composed of rats receiving 0.3 ml of saline before LPS administration. Each group had 7 animals.
(§2) The results were processed using variation statistics methods for biological research (mean standard error, means were calculated using Student's t-distribution).

[3] = system: carrageenan-induced peritonitis in mice; assay: Carrageenan-induced peritonitis in mice, volume of exudate; type: in vivo
Protocol: Research was carried out by a method described in [5]. Experiments were performed using male mice with body mass 23-24 g, in groups of 10 animals. […] The results were processed using variation statistics methods for biological research (mean standard error, means were calculated using Student's t-distribution).

[4] = system: LPS-induced peritonitis in mice; assay: LPS-induced peritonitis in mice, volume of exudate; type: in vivo
Protocol: Activity was studies using the methods listed in “Methodical recommendations on experimental (preclinical) research of new nonsteroidal anti-inflammatory drugs” for new compounds screening, in animal models of peritonitis induced by lipopolysaccharide (LPS) and carrageenan.
as §1, with “mice” for “rate”, “mice 22.0-23.0” for “mass 170.0-180.0”, “(Sigma) 1.0 mg/kg,” for “(Sigma)—1.0 mg/kg”, “mice” for “rats”, “10” for “7”
as §2

[5] = system: adjuvant arthritis in Wistar rats; assay: Chronic arthritis (adjuvant arthritis) model in Wistar rats; type: in vivo
Protocol: Compound of formula 2 was tested in chronic arthritis (adjuvant arthritis) model in Wistar rats.
In the same dose the compound has shown a potent (better than indomethacin) chondroprotective action towards interphalangeal joints of affected leg (x-ray (röntgenography) data). In intragastric administration (analog of per os) the compound has shown systemic anti-inflammatory action (reduction of swelling, leukocytosis, TNFα level, chondroprotective action) that may be associated with the inhibition of delayed type hypersensitivity.

[6] = Study of the compound's toxicity: mice mortality, LD50 by Karber method; type: in vivo; conditions: male, mouse, in vivo; oral; stated as 'may exceed'; read-out: LD50 in oral administration
Protocol: (§3) Study of the compound of formula 2 was conducted in vivo. […] To determine the doses of the compound that would need to be studied, it is first necessary to study its toxicity. Studies were carried out in male mice with body mass 18-20 g. Compound 2 was administered as a water suspension. Each dose was administered to 5 animals. Behavior and overall condition of animals were observed during 5 days. LD50 (the dose causing the death of 50% of animals) was calculated using Karber method.

male mice = assay: as above; type: in vivo; conditions: for Animal mortality: Alive / Animal mortality: Dead: 5 mice per group, 5 days observation
Protocol: as §3

[7] = Assessment of other types of pharmaceutical activity
Source text: All discovered types of pharmacological activity of compound 2 are present not only in its hydrochloride form, but also in its other pharmaceutically acceptable salts (e.g. Na, K, Ca, Mg), and also in complex combinations with pharmaceutically acceptable complexones (e.g. with glycyrrhizic acid).

mice stomach [8] = assay: Aggravation of ulcerogenic effects by 0.6H hydrochloric acid; type: in vivo
Protocol: (§4) Studies were performed according to the following scheme: • 1. […] Study of the compounds' ulcerogenic action using pharmaceutical dose during 7 days of administration. • 3. Aggravation of ulcerogenic effects of studied compounds by 0.6H hydrochloric acid. • 4. Aggravation of ulcerogenic effects of studied compounds by the known NSAIDs (indomethacin). 1.
(§5) Ulcerogenic effect was assessed using 4-point scale: 0—no damage; 0.5—hyperemia; 1—insignificant damage (1 or 2 small bleedings); 2—multiple damage (erosions, small bleedings); 3—significant and multiple damage (erosions, bleedings); 4—severe damage, affecting all gastric mucosa (massive bleedings, erosions, perforations).
(§6) Male mice with body mass 23-24 g were deprived of food for 24 hours, water access was not limited.
(§7) Drugs of comparison: indomethacin 20 mg/kg, voltaren—50 mg/kg and aminoguanidine—200 mg/kg. Each test group had 10 animals.

mice stomach [9] = assay: Aggravation of ulcerogenic effect by indomethacin; type: in vivo
Protocol: as §4, §5, §6
Drugs of comparison: voltaren—50 mg/kg and aminoguanidine—200 mg/kg. Each test group had 10 animals.

mice stomach [10] = type: in vivo
Protocol: as §4, §5
After 7 days the animals were sacrificed by CO2, their stomachs extracted and the number of ulcers counted.
as §7

[11] = 50 mg/kg dose, compared with indomethacin

N=C(N)N/N=C\c1[nH]c2ccccc2c1Nc1ccc([N+](=O)[O-])cc1 [Compound 2, N-[3-(4-nitrophenylamino)-indole-2-ilmethylene]aminoguanidine hydrochloride]
Average ulcerogenic index (4-point scale) of single administration of the compounds in 500.0 mg/kg dose (mice stomach [1]; mice fasted 24 h, into the stomach, sacrificed after 6 hours): 0 | Irritant effect on gastric mucosa (mice stomach [1]; single administration of 500 mg/kg dose): does not have irritant effect on gastric mucosa | ED50 ([2]; Rattus norvegicus, po): 48 ± 4.5 mg/kg | Anti-inflammatory activity in LPS-induced peritonitis model, % of control ([2]; 10.0 mg/kg per os): 2.0 % of control | Anti-inflammatory activity in LPS-induced peritonitis model, % of control ([2]; 25.0 mg/kg per os): 26.0* % of control | Anti-inflammatory activity in LPS-induced peritonitis model, % of control ([2]; 50.0 mg/kg per os): 58.0* % of control | Anti-inflammatory activity in LPS-induced peritonitis model, % of control ([2]; 75.0 mg/kg per os): 78.0* % of control | Anti-inflammatory activity in LPS-induced peritonitis model, % of control ([2]; 100.0 mg/kg per os): 100.0* % of control | Anti-inflammatory activity compared with voltaren and aminoguanidine ([2]; summary of tables 2 and 3 (mice and rat peritonitis models)): somewhat inferior to voltaren in used models, but is better than aminoguanidine | Anti-inflammatory activity in carrageenan-induced peritonitis model, % of control ([3]; 25.0 mg/kg per os): 3.9 % of control | Anti-inflammatory activity in carrageenan-induced peritonitis model, % of control ([3]; 50.0 mg/kg per os): 21.6* % of control | Anti-inflammatory activity in carrageenan-induced peritonitis model, % of control ([3]; 100.0 mg/kg per os): 45.1* % of control | Anti-inflammatory activity in carrageenan-induced peritonitis model, % of control ([3]; 200.0 mg/kg per os): 84.3* % of control | Anti-inflammatory activity in LPS-induced peritonitis model, % of control ([4]; 25.0 mg/kg per os): 2.2 % of control | Anti-inflammatory activity in LPS-induced peritonitis model, % of control ([4]; 50.0 mg/kg per os): 46.7* % of control | Anti-inflammatory activity in LPS-induced peritonitis model, % of control ([4]; 100.0 mg/kg per os): 88.9* % of control | Anti-inflammatory activity in LPS-induced peritonitis model, % of control ([4]; 200.0 mg/kg per os): 100.0* % of control | Chondroprotective effect (cartilage width) ([5]; 50 mg/kg dose): chondroprotective effect of compound 2 was noted | Degeneration of articular carriage of hock ([5]; 50 mg/kg dose): partially prevented the degeneration of articular carriage of hock | Development of joint sclerosis and degradation of hind leg interphalangeal joints (x-ray) [5, 11]: most effective in inhibiting the development of joint sclerosis and degradation of hind leg interphalangeal joints, better than the drug of comparison | Level of TNFα in blood plasma [5, 11]: reduced the level of TNFα as good as the drug of comparison | Severity of hind leg swelling ([5]; 50 and 75 mg/kg doses): reduced the severity of hind leg swelling | Development of delayed type hypersensitivity ([5]; adjuvant arthritis, Wistar rats): inhibiting the development of delayed type hypersensitivity | Leukocytosis ([5]; adjuvant arthritis, Wistar rats, intragastric): reducing leukocytosis | LD50 at 5 days [6]: > 5000 mg/kg | Note (behavior) (male mice; 500.0 mg/kg intravenous): Normal behavior | Animal mortality: Alive (male mice; 500.0 mg/kg intravenous): 5 | Animal mortality: Dead (male mice; 500.0 mg/kg intravenous): 0 | Note (behavior) (male mice; 1000.0 mg/kg intravenous): Normal behavior | Animal mortality: Alive (male mice; 1000.0 mg/kg intravenous): 5 | Animal mortality: Dead (male mice; 1000.0 mg/kg intravenous): 0 | Note (behavior) (male mice; 1500.0 mg/kg intravenous): Normal behavior | Animal mortality: Alive (male mice; 1500.0 mg/kg intravenous): 5 | Animal mortality: Dead (male mice; 1500.0 mg/kg intravenous): 0 | Note (behavior) (male mice; 2000.0 mg/kg intravenous): Animals depressed | Animal mortality: Alive (male mice; 2000.0 mg/kg intravenous): 4 | Animal mortality: Dead (male mice; 2000.0 mg/kg intravenous): 1 | Class of danger as specified by GOST 12.1.007-76 (male mice; after intravenous administration up to 2000.0 mg/kg): third class of danger | Other types of pharmaceutical activity [7]: possesses anti-allergic, antihypoxic and analgesic activity | Aggravation of ulceration when combined with 0.6H hydrochloric acid (mice stomach [8]): does not aggravate ulceration | Average ulcerogenic index (4-point scale) of combining the studied compounds with hydrochloric acid (mice stomach [8]; compound 2 100 mg/kg, indomethacin 20 mg/kg, voltaren 50 mg/kg, aminoguanidine 200 mg/kg, 1 hour before 0.6H HCl 5 ml/kg, after 4 hours): 0.15 | Aggravation of ulceration when combined with indomethacin (mice stomach [9]; indomethacin in 20 mg/kg dose): does not aggravate ulceration | Average ulcerogenic index (4-point scale) of combining the studied compounds with indomethacin (mice stomach [9]; mice, compound 2 100 mg/kg, voltaren 50 mg/kg, aminoguanidine 200 mg/kg, 1 hour before indomethacin 20 mg/kg, after 5 hours): 2.2 | Irritant effect on gastric mucosa (mice stomach [10]; chronic use of 200 mg/kg doses): does not have irritant effect on gastric mucosa | Average ulcerogenic index (4-point scale) of chronic administration of pharmacological dose (mice stomach [10]; mice, per os 7 days, compound 2 200 mg/kg, indomethacin 20 mg/kg, voltaren 50 mg/kg, aminoguanidine 200 mg/kg): 0
